This passage reports IC50 and Ki results from ChEMBL document CHEMBL1159181, “Short and unexpectedly potent difluorostatone type inhibitors of HIV-1 protease” (Bioorg Med Chem Lett, 1993).

pIC50, pKi: −log10 of the molar value.

The assay has as its target Human immunodeficiency virus type 1 protease (Human immunodeficiency virus 1, UniProt Q72874). Briefly: Tested for inhibitory activity against the recombinant HIV-1 protease.
Turning to `CC(C)(C)[C@H](NC(=O)OCc1ccccc1)C(=O)NC(Cc1ccccc1)C(=O)C(F)(F)C(=O)NCc1ccccc1` (stereo partly drawn), the pIC50 is 7.57. As for `CON[C@H](C(=O)N[C@H](C(=O)NC(=O)C(F)(F)C(=O)[C@H](Cc1ccccc1)NC(=O)[C@H](C)NC(=O)[C@H](C)NC(=O)[C@H](CO)NC(=O)OC(C)(C)C)C(C)C)C(C)C`, the negative-log Ki (pKi) is 3.80. As to `CC(C)CC(NC(=O)OCc1ccccc1)C(=O)NC(Cc1ccccc1)C(=O)C(F)(F)C(=O)NCc1ccccc1` (stereo not drawn), the pIC50 is 3.12.

For the compound `CC(C)(C)OC(=O)NC(Cc1ccc(O)cc1)C(=O)C(F)(F)C(=O)NCc1ccccc1` (stereo not drawn), the pKi is 9.52.

Take `CC(C)C(NC(=O)OCc1ccccc1)C(=O)NC(Cc1ccccc1)C(O)C(F)(F)C(=O)NCc1ccccc1` (stereo not drawn): the negative-log IC50 (pIC50) was 2.30.

Regarding `O=C(Cc1ccccc1)NCC(F)(F)C(=O)C(Cc1ccccc1)NC(=O)OCc1ccccc1` (stereo not drawn), the pKi is 1.22. For `CC(C)C(NC(=O)OCc1ccccc1)C(=O)NC(Cc1ccccc1)C(=O)C(F)(F)C(=O)CCc1ccccc1` (stereo not drawn), the negative-log IC50 (pIC50) was 7.00. `CN(Cc1ccccc1)C(=O)C(=O)C(=O)C(Cc1ccccc1)NC(=O)OCc1ccccc1` (stereo not drawn): the pKi was 2.30. Regarding `O=C(NC(Cc1cccc2ccccc12)C(=O)C(F)(F)C(=O)NCc1ccccc1)OCc1ccccc1` (stereo not drawn), the negative-log Ki (pKi) was below 3.00. Take `NC(=O)C(F)(F)C(=O)C(Cc1ccccc1)NC(=O)OCc1ccccc1` (stereo not drawn): the negative logarithm of the IC50 (pIC50) was 3.52. On to `CC(C)C(NC(=O)OCc1ccccc1)C(=O)NC(Cc1ccccc1)C(=O)C(F)(F)C(=O)NCc1ccccc1` (stereo not drawn), for which the pKi is 9.00.

Consider `C[Si](C)(C)CC(NC(=O)OCc1ccccc1)C(=O)C(F)(F)C(=O)NCc1ccccc1` (stereo not drawn), for which the pKi is 4.92. Still for that read-out and setting: in the case of `C[Si](C)(C)CNC(=O)C(F)(F)C(=O)C(Cc1ccccc1)NC(=O)OCc1ccccc1` (stereo not drawn) it was 6.22. In the case of `O=C(NC(Cc1ccccc1)C(=O)C(F)(F)C(=O)NCc1ccccc1)OCc1ccccc1` (stereo not drawn), the pKi was 9.22.

In the case of `CC(C)(C)OC(=O)NC(Cc1ccccc1)C(=O)C(F)(F)C(=O)NCc1ccccc1` (stereo not drawn), the pIC50 was 8.40. With `CC(C)(C)OC(=O)NC(C[Si](C)(C)C)C(=O)C(F)(F)C(=O)NCc1ccccc1` (stereo not drawn), the negative logarithm of the Ki (pKi) was 5.60.

Take `CC(C)(C)CNC(=O)C(F)(F)C(=O)C(Cc1ccccc1)NC(=O)OCc1ccccc1` (stereo not drawn): the pKi is 6.19.

As to `CCC[C@H](NC(=O)OCc1ccccc1)C(=O)NC(Cc1ccccc1)C(=O)C(F)(F)C(=O)NCc1ccccc1` (stereo partly drawn), the negative logarithm of the Ki (pKi) is 3.40.

In general, pIC50 refers to −log10 of the IC50, conventionally taken in molar units. The pKi is −log10 of the Ki, conventionally taken in molar units.
